From patent publication US9675642B2, “Engineered dendritic cells and uses for the treatment of cancer” (Intrexon Corporation, priority 2007, dated 2017)

Experiments:
[1] = tested on: GL261 gliomas; assay: Intracranial GL261 glioma survival, i.t. transduced DC plus i.p. RG-115830; format: in vivo, mice; conditions: at 50 days; DC expressing IFN-alpha and IL-12 under RTS, RG-115830 intra-peritoneal
Excerpt: Abbreviations in this figure are as follows: Ad-IFNa is Adenoviral vector constitutively expressing IFN-alpha; Ad-RTS-IFNa is Adenoviral vector encoding IFN-alpha under RTS control; Ad-RTS-IFNa no ligand is Adenoviral vector containing RTS and IFN-alpha where no activator ligand was present; Ad-IFNa/IL-12 corresponds to DC transduced with Adenoviral vectors encoding IFN-alpha and IL-12; and Ad-RTS-IFNa/IL-12 corresponds to DC transduced with two Adenoviral vectors encoding IFN-alpha and IL-12 under RTS control.
In this example, dendritic cells were isolated from bone marrow, transduced with the Adenoviral constructs depicted in FIG. 7, and mice bearing syngeneic intracranial GL261 gliomas were intratumorally injected with engineered dendritic cells; and RG-115830 was injected intra-peritoneal. […] The data reveal that ligand induced expression of IFN-alpha and IL-12 through activation of the RTS with RG-115830 ligand promoted 75 percent survival at 50 days of GL261 glioma mice; as compared to IFN-alpha expression alone. Furthermore, the control provided by the RheoSwitch and ligand promoted enhanced survival.

[2] = tested on: DC infected with rAd.RheoIL12 (DC.RheoIL12); assay: IL-12p70 secretion by adenovirus-infected murine BM-derived DC (ELISA); format: cell-based, mouse
Description: DCs were generated from murine bone marrow as previously described (Tatsumi et al., 2003). Briefly, wild-type or EGFP Tg mouse BM was cultured in CM supplemented with 1000 units/ml recombinant murine granulocyte/macrophage colony-stimulating factor and recombinant mIL-4 (Peprotech, Rocky Hill, N.J.) at 37° C. in a humidified, 5% CO2 incubator for 7 days. CD11c^+ DC were then isolated using specific MACSTM beads, per the manufacturer's protocol (Miltenyi Biotec, Auburn, Calif.). CD11c^+ DC produced in this manner were >95% pure based on morphology and co-expression of the CD11b, CD40, CD80, and class I and class II MHC antigens.
Day 7 cultured DC were untreated, were infected with recombinant Ads encoding murine IL-12p70 driven off a constitutive (rAd.cIL12) or inducible (rAd.RheoIL12) promoter, or were infected with mock, control vector rAdψ5, over a range of MOIs. At various time points after this (0-48 h), DC were then cultured in the absence or presence of an activating ligand (10-200 μg/ml) for an additional 24 h prior to analysis of IL-12p70 secretion using a specific ELISA kit (BDPharMingen, San Diego, Calif.; lower level of detection=62.5 pg/ml). […] Alternatively, after 48 h, infected DC were harvested and analyzed for phenotype and for production of IL-12p70 using the ELISA kit (BD-PharMingen, San Diego, Calif.), with a lower level of detection of 62.5 pg/ml. […]

[3] = tested on: B16 melanoma; assay: Established s.c. B16 melanoma, i.t. DC plus i.p. RG-115830; format: in vivo, C57BL/6 mice; conditions: RG-115830 alone, or DC.RheoIL12 in the absence of RG-115830
Description: B6 mice received subcutaneous injection of 1×10^5 B16 melanoma cells in the right flank on day 0. On day 7, tumors reached a size of approximately 20-30 mm^2 and mice were treated with i.t. injections of PBS or 1×10^6 control vs. adenoviral transduced (MOI=100) DC in a total volume of 50 μl of PBS. Mice also received i.p. injections of 200 μg RG-115830 (in 50 μl DMSO) vs. DMSO carrier control that were initiated at 0 h, 24 h or 48 h post-DC administration, as indicated. After initiation, mice received a total of 5 consecutive daily intraperitoneal injections of RG-115830 at this dose. In additional experiments, ligand was administered beginning on the day of DC injection and then terminated 1, 3 or 5 days post-DC injection to discern whether early cessation of IL-12p70 transgene promotion reduced the therapeutic benefits of this approach. In all cases, tumor size was assessed every 3 or 4 days and recorded in mm^2 by determining the product of the largest perpendicular diameters measured by vernier calipers. Data are reported as the average tumor area±SD. All animal cohorts contained 5 mice/group.
B16 melanoma cells (1×10^5) were injected s.c. in the […] flank of syngenic H-2^b B6 mice and allowed to establish. On day 7, mice were randomized into cohorts of 5 animals each, with a mean cohort tumor size of approximately 20-30 mm^2. […]

[4] = tested on: RTS; assay: Activation of the RTS by ligand enantiomer; conditions: R enantiomer versus racemic mixture
Description: DC-SP1 i.t. therapy using i.p. administered ligand yielded a clear ligand dose-tumor inhibition response pattern, with optimal anti-tumor effects at ligand doses >30 mg/kg/day. […] 20-22.5 mg/kg/day of the active enantiomer. […] The availability of oral administration of the ligand would ease the burden of the treatment on patients.
The recombinant DNA used as the recombinant adenoviral vector allows the expression of human IL-12 under the control of the RheoSwitch® Therapeutic System (RTS). The RTS comprises a bicistronic message expressed from the human Ubiquitin C promoter and codes for two fusion proteins: Gal4-EcR and VP16-RXR. Gal4-EcR is a fusion between the DNA binding domain (amino acids 1-147) of yeast Gal4 and the DEF domains of the ecdysone receptor from the insect Choristoneura fumiferana. […] VP16-RXR is a fusion between the transcription activation domain of HSV-VP16 and the EF domains of a chimeric RXR derived from human and locust sequences. […]

[5] = tested on: human dendritic cells transduced with adenoviral vector Ad-RTS-mIL-12; assay: IL-12 production by human DC transduced with Ad-RTS-mIL-12; format: cell-based; conditions: 3 hour viral adsorption at MOI of 500
Excerpt: The activator drug (“AD” or “activating ligand”) induced IL-12 expression in these transduced human dendritic cells.

[6] = tested on: B16 melanoma; assay: DC dose and duration of ligand administration in B16 melanoma; format: in vivo, B6 mice
Description: Tumor bearing mice were given a single intratumoral injection of AdDCs at doses of 10^5, 10^6, and 10^7 cells and daily i.p. injection of Activating Ligand at a single dose of 30 mg/kg/day for 6 days or 13 days beginning on the day of the injection of 10^7 cells. […] There was no effect of the Activating Ligand alone (without AdDCs) on tumor growth.
In a similar experiment to FIG. 12, the Activating Ligand was administered by oral gavage for 9 and 12 days. The anti-tumor dose response with an oral formulation of the Activating Ligand at different doses in Labrasol was assessed.
B16 melanomas were established s.c. for 7 days in the right flanks of 5 syngeneic B6 mice. On day 7, DC.SP1-IL-12 (bone marrow derived DC infected at an MOI of 100 using the SP1 optimal switch) were injected intratumorally (i.t.) at doses of 10E5, 10E6 or 10E7. RG-115932 was provided by i.p. injection beginning on the day of DC injection (and daily thereafter for either 6 days or 13 days). Each cohort contained 5 animals, with tumor growth monitored every 3-4 days and reported as mean size (mm squared based on the product of orthogonal measurements). Individual animal weights were also assessed at the time of tumor measurements (FIG. 13). All animals rendered free of disease by any therapy were rechallenged on day 50 (post-initial B16 tumor inoculation) with 10E5 B16 melanoma cells on the opposite flank (left flank) of the original tumor and with 10E5 MC38 colon carcinoma cells on the right flank. Tumor growth was monitored every 3-4 days and compared against growth observed in naïve (untreated) animals (see FIG. 12).

[7] = tested on: human and mouse cell lines and primary dendritic cells transduced with recombinant adenoviral vector carrying the genes for IL12; assay: IL12 induction in cell lines and primary DC transduced with IL12 adenoviral vector; format: cell-based; conditions: in vitro
[8] = tested on: mouse dendritic cells transduced with Ad-RTS-mIL-12; assay: Activator Drug dose-dependent IL-12 expression in mouse DC transduced with Ad-RTS-mIL-12; format: cell-based; conditions: varying doses of Activator Drug
[9] = tested on: B16 melanomas; assay: Ligand route/dose comparison with i.t. DC.SP1-IL12 in B16 melanoma; format: in vivo, B6 mice
Description: B16 melanomas were established s.c. for 7 days in the right flanks of syngenic B6 mice. On day 7, 10^6 DC.SP1-IL12 (optimal switch identified in FIG. 10 comparison) were injected intratumorally (i.t.). Activating ligand (RG-115932) was provided either as an injection i.p., via oral gavage in Labrasol, or via drug-containing chow provided ad libitum beginning on the day preceding DC injection (and daily thereafter for 6 days). Each cohort contained 5 animals, with tumor growth monitored every 3-4 days and reported as mean size (mm^2 based on the product of orthogonal measurements). The treatment for each cohort is described below.

Row | SMILES | survival [1] [%] | RG-115830 concentration for optimal infected DC production of IL-12p70 ([2]; MOI of 100) [µg/mL] | IL-12p70 production after delayed provision of RG-115830 ([2]; delayed for up to 48 h compared to 0 h timepoint) | therapeutic benefit [3] | activation of the RTS [4] | IL-12 expression [5] | tumor regression ([6]; 13 days in a row with 10^7 dendritic cells) | suppression of tumor growth, 13 days instead of 6 days of ligand ([6]; i.p. 30 mg/kg/day with AdDCs) | anti-tumor dose response, oral ligand ([6]; oral gavage in Labrasol for 9 and 12 days) | oral dose with the greatest responses ([6]; orally for 12 days, Labrasol) [mg/kg/day] | tumor growth, ligand alone ([6]; without AdDCs) | IL12 expression [7] | IL-12 production [8] | efficacy by route of ligand administration ([9]; DC-SP1 i.t. therapy, ligand 30 mg/kg/day) | ligand dose giving optimal anti-tumor effects ([9]; DC-SP1 i.t. therapy, ligand i.p.) [mg/kg/day] | efficacy by route in mouse melanoma model ([9]; DCs transduced with murine IL-12 under RTS) | B16 tumor growth, ligand alone ([9]; no DC, any dose or any route)
1 | CCCC(N(NC(=O)c1cccc(OC)c1CC)C(=O)c1cc(C)cc(C)c1)C(C)(C)C (centres unmarked) [RG-115830, 3,5-Dimethyl-benzoic acid N-(1-tert-butyl-butyl)-N′-(2-ethyl-3-methoxy-benzoyl)-hydrazide] | 75 | 50 to 200 | did not result in any significantly reduced production of IL-12p70 | failed to yield any therapeutic benefit |  |  |  |  |  |  |  |  |  |  |  |  | 
2 | CCC[C@@H](N(NC(=O)c1cccc(OC)c1CC)C(=O)c1cc(C)cc(C)c1)C(C)(C)C [RG-115932, (R)-3,5-Dimethyl-benzoic acid N-(1-tert-butyl-butyl)-N′-(2-ethyl-3-methoxy-benzoyl)-hydrazide] |  |  |  |  | capable of activating the RTS | induced IL-12 expression in these transduced human DCs | effective in causing tumor regression over a 25 day period | significantly more robust suppression of tumor growth | dose dependent anti-tumor effect | 50 | no effect | induction of IL12 expression in response to the activator drug in a dose dependent way | produced IL-12 in a dose dependent manner | equally effective if ligand is administered by i.p. injection, oral gavage, or diet admix | > 30 | effective in intraperitoneal and oral routes | had no impact on B16 tumor growth
